We go through 6 molecules from paper PMC5617738 (Toxicology Reports, 2016).

Each structure is given as a SMILES string. Converted amounts (≈) assume the structure as drawn. Read-outs that look alike come from different tables or passages of the source.

One data set has as its system PBMCs. The note with it: read-out: IC50 (toxicity on PBMCs); cited from earlier work.
A further data set has as its system HL-7702. The settings on record: HL-7702 cells; cited from earlier work.
The next data set concerns rodent. The note with it: cited from earlier work.
The test system of the next data set is Plasmodium berghei. The note with it: P. berghei infected mice, cited from earlier work.
A short description of data set [1]: Solubility in test solution. The settings on record: solution with a maximum of 1% DMSO. In kind it is physicochemical.
The next data set deals with murine macrophage cells. The note with it: cited from earlier work.

For the molecule `Cc1cc(O)c2c(c1)C(=O)C(O)=CC2=O` [2,5-Dihydroxy-7-methyl-1,4-naphthoquinone], the IC50 in the data set on PBMCs is 54 µM.
Regarding `O=C1C=C(O)C(=O)c2ccccc21` [2-hydroxy-1,4-naphthoquinone], in the data set with HL-7702, the “Relative cytotoxicity among six naphthoquinones” value is listed as “less toxic”. Besides, in the data set on rodent, the In vivo toxicity result was “highly toxic, causing both hemolytic anaemia and renal tubular necrosis”.
Take `O=C1C(O)=C(Nc2ccccc2)C(=O)c2ccccc21` [4a, 2-hydroxy-3-anilino-1,4-naphthoquinone]: in the data set on Plasmodium berghei (vs untreated control), the “Parasitemia inhibition (%) Day 5” value was 53.3% and the “Parasitemia inhibition (%) Day 7” value was 18.5%. The “Mean Survival” value with Plasmodium berghei was 32.5 ± 6.6 days. For the same molecule, in the data set on Plasmodium berghei (first Parasitemia column), the “Parasitemia Day 5” value is on record as 0.7. Also, the “Parasitemia Day 5” value in the data set on Plasmodium berghei (second Parasitemia column, head printed Day 5) was 2.2. For the same molecule, the Solubility result in data set [1] is listed as “soluble in the solution with a maximum of 1% DMSO”.
Consider `Cc1cc(O)c2c(c1)C(=O)C=CC2=O` [7-MJ, 5-Hydroxy-7-methyl-1,4-naphthoquinone], for which the concentration for half-maximal inhibition (IC50) in the data set with PBMCs was 18.4 µM.
On to `Cc1cc(O)c2c(c1F)C(=O)C=CC2=O` [8-Fluoro-5-hydroxy-7-methyl-1,4-naphthoquinone], for which the IC50 in the data set on PBMCs was 189 µM.
On to `COc1cc(C=O)ccc1O` [vanillin], for which, in the data set on murine macrophage cells, the concentration for half-maximal inhibition (IC50) was 645 mg/L (≈ 4.24 mM).
